# Measurements reported in PMC12203311, “Design, synthesis, in silico and in vitro evaluation of pyrrole–indole hybrids as dual tubulin and aromatase inhibitors with potent anticancer activities” (RSC Advances, 2025).
# Columns and labels:
# Assay in all cases: NCI60 five-dose screen
# RPMI-8226 = type: cell-based; conditions: Homo sapiens, RPMI-8226, leukemia
# A549/ATCC = type: cell-based; conditions: Homo sapiens, NSC lung cancer
# NCI-H226 = type: cell-based; conditions: Homo sapiens, NCI-H226, NSC lung cancer
# T-47D = type: cell-based; conditions: Homo sapiens, T47D, breast cancer
# MDA-MB-468 = type: cell-based; conditions: Homo sapiens, MDA-MB-468, breast cancer
# UACC-62 = type: cell-based; conditions: Homo sapiens, UACC-62, melanoma
# NCI/ADR-RES = type: cell-based, human; conditions: Homo sapiens, ovarian cancer
# SF-268 = type: cell-based; conditions: Homo sapiens, SF-268, CNS cancer
# SK-MEL-5 = type: cell-based, human; conditions: Homo sapiens
# IGROV1 = type: cell-based; conditions: Homo sapiens, IGROV-1; IGROV1, ovarian cancer
# BT-549 = type: cell-based; conditions: Homo sapiens, BT-549, breast cancer
# SK-MEL-2 = type: cell-based; conditions: Homo sapiens, SK-MEL-2, melanoma
# MOLT-4 = type: cell-based; conditions: Homo sapiens, MOLT-4, leukemia
# SN12C = type: cell-based; conditions: Homo sapiens, renal cancer
# PC-3 = type: cell-based; conditions: Homo sapiens, PC-3, prostate cancer
# K-562 = type: cell-based; conditions: Homo sapiens, K562, K-562, leukemia
# SF-295 = type: cell-based; conditions: Homo sapiens, SF-295, CNS cancer
# MCF7 = type: cell-based; conditions: Homo sapiens, MCF7, breast cancer
# SNB-75 = type: cell-based; conditions: Homo sapiens, SNB-75, CNS cancer
# MDA-MB-231/ATCC = type: cell-based; conditions: Homo sapiens, breast cancer
# HT29 = type: cell-based; conditions: Homo sapiens, HT-29, HT29, colon cancer
# HCT-15 = type: cell-based; conditions: Homo sapiens, HCT-15, colon cancer
# ACHN = type: cell-based; conditions: Homo sapiens, renal cancer
# HCC-2998 = type: cell-based; conditions: Homo sapiens, HCC-2998, colon cancer
# SNB-19 = type: cell-based; conditions: Homo sapiens, SNB-19, CNS cancer
# SF-539 = type: cell-based; conditions: Homo sapiens, SF-539, CNS cancer
# UO-31 = type: cell-based; conditions: Homo sapiens, UO-31, renal cancer
# OVCAR-8 = type: cell-based; conditions: Homo sapiens, OVCAR-8, ovarian cancer
# HCT-116 = type: cell-based; conditions: Homo sapiens, HCT-116, colon cancer
# EKVX = type: cell-based; conditions: Homo sapiens, NSC lung cancer
# SK-OV-3 = type: cell-based; conditions: Homo sapiens, SK-OV-3, ovarian cancer
# OVCAR-3 = type: cell-based; conditions: Homo sapiens, OVCAR-3, ovarian cancer
# LOX IMVI = type: cell-based; conditions: Homo sapiens, melanoma
# [1] = read-out: LC50 (the source's name)
structure (smiles),measurement,setting,value
"O=C(N/N=C/c1cc[nH]c1)c1[nH]c2ccc(Br)cc2c1-c1ccccc1 [Derivative 3b, (E)-N′-((1H-Pyrrol-3-yl)methylene)-5-bromo-3-phenyl-1H-indole-2-carbohydrazide]",GI50,RPMI-8226,1.43 µM
same,CC50,RPMI-8226; [1],> 100 µM
same,GI50,A549/ATCC,1.61 µM
same,CC50,A549/ATCC; [1],52.6 µM
same,GI50,NCI-H226,2.52 µM
same,CC50,NCI-H226; [1],51.2 µM
same,GI50,T-47D,3.49 µM
same,CC50,T-47D; [1],> 100 µM
same,GI50,MDA-MB-468,0.593 µM
same,CC50,MDA-MB-468; [1],24.2 µM
same,GI50,UACC-62,1.03 µM
same,CC50,UACC-62; [1],41.3 µM
same,GI50,NCI/ADR-RES,0.636 µM
same,CC50,NCI/ADR-RES; [1],27.1 µM
same,GI50,SF-268,2.41 µM
same,CC50,SF-268; [1],59.1 µM
same,CC50,"SK-MEL-5; SK-MEL-5, SK-MEL-5, melanoma, read-out: LC50 (the source's name)",14.6 µM
same,GI50,"SK-MEL-5; SK-MEL-5, melanoma",1.1 µM
same,GI50,IGROV1,1.27 µM
same,GI50,BT-549,4.53 µM
same,CC50,BT-549; [1],52.3 µM
same,GI50,SK-MEL-2,2.48 µM
same,CC50,SK-MEL-2; [1],38.4 µM
same,GI50,MOLT-4,1.52 µM
same,CC50,MOLT-4; [1],> 100 µM
same,GI50,SN12C,1.49 µM
same,CC50,SN12C; [1],37.7 µM
same,GI50,PC-3,2 µM
same,CC50,PC-3; [1],> 100 µM
same,GI50,K-562,0.429 µM
same,CC50,K-562; [1],97 µM
same,GI50,SF-295,1.94 µM
same,CC50,SF-295; [1],33.8 µM
same,GI50,MCF7,0.436 µM
same,CC50,MCF7; [1],49.8 µM
same,GI50,SNB-75,0.88 µM
same,CC50,SNB-75; [1],32 µM
same,GI50,MDA-MB-231/ATCC,1.62 µM
same,CC50,MDA-MB-231/ATCC; [1],26.4 µM
same,GI50,HT29,0.68 µM
same,CC50,HT29; [1],34.5 µM
same,GI50,HCT-15,0.918 µM
same,CC50,HCT-15; [1],34 µM
same,GI50,ACHN,1.71 µM
same,CC50,ACHN; [1],39 µM
same,GI50,HCC-2998,1.55 µM
same,CC50,HCC-2998; [1],32.7 µM
same,GI50,SNB-19,2.55 µM
same,CC50,SNB-19; [1],39.8 µM
same,GI50,SF-539,0.869 µM
same,CC50,SF-539; [1],17 µM
same,GI50,UO-31,1.66 µM
same,CC50,UO-31; [1],41 µM
same,GI50,OVCAR-8,1.21 µM
same,CC50,OVCAR-8; [1],38.6 µM
same,GI50,HCT-116,0.991 µM
same,CC50,HCT-116; [1],> 100 µM
same,GI50,EKVX,4.41 µM
same,CC50,EKVX; [1],41.7 µM
same,GI50,SK-OV-3,5.59 µM
same,CC50,SK-OV-3; [1],71.9 µM
same,GI50,OVCAR-3,1.09 µM
same,CC50,OVCAR-3; [1],31.9 µM
same,GI50,LOX IMVI,0.916 µM
same,CC50,LOX IMVI; [1],38.7 µM
